Assay results as given in patent US9975880B2, “Imidazolidine-2,4-dione dervatives” (IPSEN PHARMA S.A.S., priority 2013, dated 2018).
Values after ≈ are worked out from the molar mass of the structure shown. Where two headings read alike, the source gives them in different places.

Tests used:
LNCaP cells = experiment: Anti-proliferative activity on LNCaP in complete medium; format: cell-based; conditions: Homo sapiens, 144 h
Protocol: The anti-proliferative activity of the compounds of the present invention is determined on LNCaP in complete medium by applying the following experimental procedure:
The LNCaP cell type (ATCC, 1740) originates from a prostate carcinoma. This line expresses the androgen receptor and is hormone-dependent.
Maintenance of the LNCaP line is carried out in complete culture medium: RPMI, 10% of fetal calf serum, 2 mM glutamine, 100 U/ml penicillin, 0.1 mg/ml of streptomycin and 0.01M HEPES, 1 mM sodium pyruvate, […]. • Seeding the plates:
The LNCaP line is seeded at 20,000 cells/well in 90 μl of complete medium in 96-well plates coated with poly-D-lysine (Biocoat, Costar). • Treatment of the cells: 24 h after the seeding, the cells are treated with 10 μl/well of compound diluted in the culture medium. The concentrations used are the following: 1 nM/10/30/100/300/1000/3000/10,000 nM. The cells are incubated for 144 h at 37° C., 5% CO2. • Reading: After incubation for 6 days, cell proliferation was determined by Cell-Titer-Glow (CTG) Luminescent Cell Viability Assay. • Results: The experiments are carried out in duplicate and the best compounds are tested twice. […] Anti-Proliferative Activity on DU145 in Complete Medium

Evaluation of solubility = format: physicochemical; conditions: aqueous buffer, kinetic from dmso stock; 100 mM potassium phosphate buffer pH 7.4, 0.1% DMSO, target 100 μM, 1 hour room temperature, LC-MS/MS
Protocol: Test compounds were prepared as stock solutions at 100 mM in DMSO. The stock solutions were diluted, in duplicate, into 100 mM potassium phosphate buffer (pH 7.4) to a target concentration of 100 μM with a final DMSO concentration of 0.1%. The solutions were shaken at 1000 rpm for 1 hour at room temperature followed by centrifugation for 10 minutes at 1200 rpm to precipitate un-dissolved particles. The supernatants were transferred to new tubes and the samples were further prepared as follows: • Undiluted: 5 μL of supernatant to 95 μL of ACN containing internal standard (IS) • 1:10 diluted: 10 μL of the supernatant into 90 μL K-buffer, mix, then transfer 5 μL of 1:10 diluted samples to 95 μL ACN containing IS • 1:100 diluted: 10 μL of the supernatant into 990 μL K-buffer, mix, then transfer 5 μL of 1:100 diluted samples to 95 μL of ACN containing IS
Samples (undiluted, 1:10 diluted, and 1:100 diluted) along with the standards were analyzed by LC-MS/MS.

DU145 cells = experiment: Anti-proliferative activity on DU145 in complete medium; format: cell-based; conditions: DU145 (no androgen receptor), 144 h, up to 10,000 nM, Cell-Titer-Glow
Protocol: It is used to evaluate the selectivity of the compounds for androgen receptor expressing cells. No activity of the compounds is expected. • The cells of the DU145 line (ATCC HTB-81) are seeded at 800 cells/well in 90 μl of complete medium in 96-well plates coated with poly-D-lysine (Biocoat, Costar). • Treatment of the cells: 24 h after the seeding, the cells are treated with 10 μl/well of compound diluted in the culture medium. The concentrations used are the following: 1 nM/10/30/100/300/1000/3000/10,000 nM. The cells are incubated for 144 h at 37° C., 5% CO2. • Reading: After incubation for 6 days, cell proliferation was determined by Cell-Titer-Glow (CTG) Luminescent Cell Viability Assay • Results: The experiments are carried out in duplicate and the best compounds are tested twice. A concentration value inhibiting the cell proliferation by 50% (IC50) is calculated.

[1] = complete medium, 144 h incubation, Cell-Titer-Glow, read-out: IC50 on the LNCaP cells in culture (inhibition of cell proliferation by 50%)
[2] = read-out: IC50 on the LNCaP cells in culture (inhibition of cell proliferation by 50%), LNCaP, complete medium, 144 h incubation, Cell-Titer-Glow

SMILES	IC50 (LNCaP cells; [1]) [nM]	solubility at 1 h (Evaluation of solubility) [µM]	IC50 on DU145 cells (anti-proliferative effect) (DU145 cells)	IC50 (LNCaP cells; [2]) [nM]
CC1(C)C(=O)N(c2ccc(S(C)(=O)=O)c(C(F)(F)F)c2)C(=O)N1C/C=C\CN1CC(c2ccc(S(C)(=O)=O)c(C(F)(F)F)c2)CC1=O (stereo not drawn) [Example 15, (Z)-5,5-dimethyl-3-(4-(methylsulfonyl)-3-(trifluoromethyl)phenyl)-1-(4-(4-(4-(methylsulfonyl)-3-(trifluoromethyl)phenyl)-2-oxopyrrolidin-1-yl)but-2-en-1-yl)imidazolidine-2,4-dione]	< 1500	1.9 (≈ 1.34 µg/mL)	no measurable IC50	–
CC1(C)C(=O)N(c2ccc(C#N)c(C(F)(F)F)c2)C(=O)N1C/C=C\Cn1cc(-c2ccc(C#N)c(C(F)(F)F)c2)cn1 [Example 1, (Z)-4-(3-(4-(4-(4-cyano-3-(trifluoromethyl)phenyl)-1H-pyrazol-1-yl)but-2-en-1-yl)-4,4-dimethyl-2,5-dioxoimidazolidin-1-yl)-2-(trifluoromethyl)benzonitrile]	–	–	no measurable IC50	–
CC1(C)C(=O)N(c2ccc(C#N)c(C(F)(F)F)c2)C(=O)N1C/C=C\Cn1cnc(-c2ccc(S(C)(=O)=O)c(C(F)(F)F)c2)c1 [Example 18, (Z)-4-(4,4-dimethyl-3-(4-(4-(4-(methylsulfonyl)-3-(trifluoromethyl)phenyl)-1H-imidazol-1-yl)but-2-en-1-yl)-2,5-dioxoimidazolidin-1-yl)-2-(trifluoromethyl)benzonitrile]	< 1500	–	–	–
CC1(C)C(=O)N(c2ccc(S(C)(=O)=O)c(C(F)(F)F)c2)C(=O)N1C/C=C\Cn1cc(-c2ccc(C#N)c(C(F)(F)F)c2)cn1 [Example 2, (Z)-4-(1-(4-(5,5-dimethyl-3-(4-(methylsulfonyl)-3-(trifluoromethyl)phenyl)-2,4-dioxoimidazolidin-1-yl)but-2-en-1-yl)-1H-pyrazol-4-yl)-2-(trifluoromethyl)benzonitrile]	–	–	no measurable IC50	–
CC1(C)CN(c2ccc(S(C)(=O)=O)c(C(F)(F)F)c2)C(=O)N1C/C=C\CN1C(=O)N(c2ccc(S(C)(=O)=O)c(Cl)c2)C(=O)C1(C)C [Example 8, (Z)-3-(3-chloro-4-(methylsulfonyl)phenyl)-1-(4-(5,5-dimethyl-3-(4-(methylsulfonyl)-3-(trifluoromethyl)phenyl)-2-oxoimidazolidin-1-yl)but-2-en-1-yl)-5,5-dimethylimidazolidine-2,4-dione]	–	–	no measurable IC50	–
CC1(C)C(=O)N(c2cnc(C#N)c(C(F)(F)F)c2)C(=O)N1C/C=C\Cn1cc(-c2ccc(S(C)(=O)=O)c(Cl)c2)cn1 [Example 5, (Z)-5-(3-(4-(4-(3-chloro-4-(methylsulfonyl)phenyl)-1H-pyrazol-1-yl)but-2-en-1-yl)-4,4-dimethyl-2,5-dioxoimidazolidin-1-yl)-3-(trifluoromethyl)picolinonitrile]	–	0.65 (≈ 0.395 µg/mL)	no measurable IC50	–
CC1(C)C(=O)N(c2ccc(C#N)c(C(F)(F)F)c2)C(=O)N1C/C=C\CN1CCN(c2ccc(S(C)(=O)=O)c(Cl)c2)S1(=O)=O [Example 17, (Z)-4-(3-(4-(5-(3-chloro-4-(methylsulfonyl)phenyl)-1,1-dioxido-1,2,5-thiadiazolidin-2-yl)but-2-en-1-yl)-4,4-dimethyl-2,5-dioxoimidazolidin-1-yl)-2-(trifluoromethyl)benzonitrile]	–	1.97 (≈ 1.3 µg/mL)	no measurable IC50	< 1500
CC1(C)C(=O)N(c2ccc(C#N)c(C(F)(F)F)c2)C(=O)N1C/C=C\Cn1cc(-c2ccc(C#N)c(C(F)(F)F)c2)nn1 [Example 22, (Z)-4-(3-(4-(4-(4-cyano-3-(trifluoromethyl)phenyl)-1H-1,2,3-triazol-1-yl)but-2-en-1-yl)-4,4-dimethyl-2,5-dioxoimidazolidin-1-yl)-2-(trifluoromethyl)benzonitrile]	< 1500	–	–	–
CC1(C)C(=O)N(c2ccc(C#N)c(C(F)(F)F)c2)C(=O)N1C/C=C\Cn1cc(-c2ccccc2)nn1 [Example 19, (Z)-4-(4,4-dimethyl-2,5-dioxo-3-(4-(4-phenyl-1H-1,2,3-triazol-1-yl)but-2-en-1-yl)imidazolidin-1-yl)-2-(trifluoromethyl)benzonitrile]	< 1500	–	–	–
CC1(C)CN(c2ccc(S(C)(=O)=O)c(C(F)(F)F)c2)C(=O)N1C/C=C\CN1C(=O)N(c2ccc(C#N)c(C(F)(F)F)c2)C(=O)C1(C)C [Example 7, (Z)-4-(3-(4-(5,5-dimethyl-3-(4-(methylsulfonyl)-3-(trifluoromethyl)phenyl)-2-oxoimidazolidin-1-yl)but-2-en-1-yl)-4,4-dimethyl-2,5-dioxoimidazolidin-1-yl)-2-(trifluoromethyl)benzonitrile]	< 1500	–	no measurable IC50	–
CC1(C)C(=O)N(c2ccc(C#N)c(C(F)(F)F)c2)C(=O)N1C/C=C\CN1CCN(c2ccc(S(C)(=O)=O)c(Cl)c2)C1=O [Example 11, (Z)-4-(3-(4-(3-(3-chloro-4-(methylsulfonyl)phenyl)-2-oxoimidazolidin-1-yl)but-2-en-1-yl)-4,4-dimethyl-2,5-dioxoimidazolidin-1-yl)-2-(trifluoromethyl)benzonitrile]	–	0.34 (≈ 0.212 µg/mL)	no measurable IC50	< 1500
CC1(C)C(=O)N(c2cnc(C#N)c(C(F)(F)F)c2)C(=O)N1C/C=C\Cn1cc(-c2ccc(S(C)(=O)=O)c(C(F)(F)F)c2)cn1 [Example 4, (Z)-5-(4,4-dimethyl-3-(4-(4-(4-(methylsulfonyl)-3-(trifluoromethyl)phenyl)-1H-pyrazol-1-yl)but-2-en-1-yl)-2,5-dioxoimidazolidin-1-yl)-3-(trifluoromethyl)picolinonitrile]	–	1.7 (≈ 1.09 µg/mL)	no measurable IC50	–
Cc1nn(C/C=C\CN2C(=O)N(c3ccc(C#N)c(C(F)(F)F)c3)C(=O)C2(C)C)c(C)c1-c1ccc(S(C)(=O)=O)c(C(F)(F)F)c1 [Example 6, (Z)-4-(3-(4-(3,5-dimethyl-4-(4-(methylsulfonyl)-3-(trifluoromethyl)phenyl)-1H-pyrazol-1-yl)but-2-en-1-yl)-4,4-dimethyl-2,5-dioxoimidazolidin-1-yl)-2-(trifluoromethyl)benzonitrile]	–	4.38 (≈ 2.92 µg/mL)	no measurable IC50	–
CC1(C)C(=O)N(c2ccc(S(C)(=O)=O)c(Cl)c2)C(=O)N1C/C=C\CN1CCC(O)(c2ccc(C#N)c(C(F)(F)F)c2)C1 (stereo not drawn) [Example 16, (Z)-4-(1-(4-(3-(3-chloro-4-(methylsulfonyl)phenyl)-5,5-dimethyl-2,4-dioxoimidazolidin-1-yl)but-2-en-1-yl)-3-hydroxypyrrolidin-3-yl)-2-(trifluoromethyl)benzonitrile]	< 1500	–	no measurable IC50	–
CC1(C)CN(c2ccc(C#N)c(C(F)(F)F)c2)C(=O)N1C/C=C\CN1C(=O)N(c2ccc(S(C)(=O)=O)c(C(F)(F)F)c2)C(=O)C1(C)C [Example 9, (Z)-4-(3-(4-(5,5-dimethyl-3-(4-(methylsulfonyl)-3-(trifluoromethyl)phenyl)-2,4-dioxoimidazolidin-1-yl)but-2-en-1-yl)-4,4-dimethyl-2-oxoimidazolidin-1-yl)-2-(trifluoromethyl)benzonitrile]	–	–	no measurable IC50	< 1500
